{
  "source": "patent US20170053081A1",
  "about": "“METHODS AND MATERIALS FOR CHARACTERIZING INTESTINAL BARRIER FUNCTION” (THE ARIZONA BOARD OF REGENTS ON BEHALF OF THE UNIVERSITY OF …, priority 2014, published 2017)",
  "key": {"plasma FABP2": {"system": "plasma FABP2", "experiment": "Serial plasma FABP2 (ELISA) in children after cardiopulmonary bypass for CHD, by treatment factor", "settings": "children after CPB; for Association of infusion with elevation in plasma FABP2 over time: vasoactive infusions, any dose, p<0.01", "description": "(§1) Inclusion criteria were age greater than 37 weeks corrected gestational age and a diagnosis of CHD requiring surgical repair or palliation with the use of CPB. Exclusion criteria were known pre-existing gastrointestinal dysfunction, immune dysfunction, active intracranial bleeding, and anuric renal failure. All operations were performed by two surgeons. CPB and anesthetic regimens were per usual care.\nBlood samples for measurement of plasma FABP2, claudin 3, and citrulline were collected from indwelling intravascular catheters pre-operatively after induction of general anesthesia, but prior to CPB, and at 6, 12, 24, 48, and ≧120 hours post-operatively. Final samples at ≧120 hours were collected between 120 and 168 hours post-operatively to evaluate the return to baseline values. Control samples were obtained intra-operatively from the CPB circuits prior to connection to the patient. […]\nClinical data included candidate factors likely to alter intestinal barrier function. […] Vasoactive-inotrope score (VIS) was determined at time of sample collection and was previously validated (see, e.g., Gaies, et al., Pediatric critical care medicine: a journal of the Society of Critical Care Medicine and the World Federation of Pediatric Intensive and Critical Care Societies 2010; 11:234-8).\nPlasma concentrations of human FABP2 were evaluated by ELISA according to the manufacturer's protocol (Standards range: 10 000 pg/ml to 156.25 pg/ml) (R&D Systems, Minneapolis, Minn.). Claudin 3 concentration was evaluated by ELISA in plasma from patients according to manufacturer's instruction (standard range from 20 ng/ml to 0.312 ng/ml) (Uscn life science Inc, Wuhan, China).\nData were analyzed using STATA SE/11 software. […] As citrulline values were normally distributed, the effect of binary variables on citrulline were evaluated with a Student's t-test. […] The effect continuous and categorical variables over time on repeated log-transformed plasma FABP2, log-transformed claudin 3, and citrulline was evaluated with multi-level mixed-effects linear regression. […]"}, "[1]": {"system": "intestinal barrier function", "experiment": "Intestinal barrier function biomarker panel (plasma FABP2, claudin 3, citrulline) in children after cardiopulmonary bypass", "settings": "for Association with changes in post-operative FABP2, claudin3, or citrulline: caudal or spinal, post-operative pain management, p>0.05", "description": "A panel of plasma biomarkers was used to reflect intestinal epithelial cellular and paracellular structure (FABP2 and claudin 3), as well as cellular and paracellular function (citrulline and DSPT). In particular, twenty children aged newborn to 18 years undergoing repair or palliation of congenital heart disease with CPB were examined. Plasma FABP2, claudin 3, and citrulline were measured after induction of general anesthesia, and at 6, 12, 24, 48, and 120 hours post-operatively.\nas §1\nBlood samples for measurement of plasma FABP2, claudin 3, and citrulline were collected from indwelling intravascular catheters pre-operatively after induction of general anesthesia, but prior to CPB, and at 6, 12, 24, 48, and ≧120 hours post-operatively. […]\nPlasma concentrations of human FABP2 were evaluated by ELISA according to the manufacturer's protocol (Standards range: 10 000 pg/ml to 156.25 pg/ml) (R&D Systems, Minneapolis, Minn.). Claudin 3 concentration was evaluated by ELISA in plasma from patients according to manufacturer's instruction (standard range from 20 ng/ml to 0.312 ng/ml) (Uscn life science Inc, Wuhan, China). […]\nSamples were separated on Phenomenex Luna HILIC 200A SB-C18, 3 μm, 150×2.00 mm column (Torrance, Calif.) using Paradigm MS4B-multi-dimensional separations module (Michrom BioResources, Inc., Auburn, Calif.). […] Full injection loop (20 μl) was used to introduce 2 μl sample diluted with 18 μl of solvent B. AB SCIEX API 3000 triple-quadrupole mass spectrometer (Applied Biosystems, Foster City, Calif.) controlled by Analyst 1.5.1 in-line with the HPLC was used for citrulline detection and quantitative analysis."}},
  "data": [
    {"smiles": "CNC[C@H](O)c1ccc(O)c(O)c1", "note": "[epinephrine]", "values": [
      {"measurement": "Association with elevated plasma FABP2", "setting": "plasma FABP2; p=0.03", "value": "associated with elevated plasma FABP2"},
      {"measurement": "Association of infusion with elevation in plasma FABP2 over time", "setting": "plasma FABP2", "value": "associated with"}
    ]},
    {"smiles": "CN1CC[C@]23c4c5ccc(O)c4O[C@H]2[C@@H](O)C=C[C@H]3[C@H]1C5", "note": "[morphine]", "values": [
      {"measurement": "Association with changes in post-operative FABP2, claudin3, or citrulline", "setting": "[1]", "value": "not associated with changes"}
    ]},
    {"smiles": "CCCCN1CCCCC1C(=O)Nc1c(C)cccc1C", "note": "(stereo not drawn) [bupivicaine]", "values": [
      {"measurement": "Association with changes in post-operative FABP2, claudin3, or citrulline", "setting": "[1]", "value": "not associated with changes"}
    ]},
    {"smiles": "NC(=O)CC[C@@H]1NC(=O)[C@H](Cc2ccccc2)NC(=O)[C@H](Cc2ccc(O)cc2)NC(=O)[C@@H](N)CSSC[C@@H](C(=O)N2CCC[C@H]2C(=O)N[C@@H](CCCN=C(N)N)C(=O)NCC(N)=O)NC(=O)[C@H](CC(N)=O)NC1=O", "note": "[vasopressin]", "values": [
      {"measurement": "Association of infusion with elevation in plasma FABP2 over time", "setting": "plasma FABP2", "value": "associated with"},
      {"measurement": "Risk for intestinal barrier dysfunction", "setting": "[1]; children undergoing CPB, post-operative use to maintain mean arterial blood pressure", "value": "increase the risk for intestinal barrier dysfunction"}
    ]}
  ]
}
